Results as given in PubChem BioAssay (NCI).
“And” between values parts separate entries of the source, which are not always exact repeats. Equal entries are not always repeated.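 Assay format: 96-well plates, 48-hour exposure. Here, GI50 denotes the concentration required for 50% inhibition of growth. TGI marks complete inhibition of growth.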

Tests used:
Assay in all cases: NCI anticancer screen, dose series, 48 h
HCC-2998 colon = system: HCC-2998 colon
HS 578T breast = system: HS 578T breast
HT29 colon = system: HT29 colon
LOX IMVI melanoma = system: LOX IMVI melanoma
MALME-3M melanoma = system: MALME-3M melanoma
NCI-H460 lung = system: NCI-H460 lung
NCI/ADR-RES ovarian = system: NCI/ADR-RES ovarian
SK-OV-3 ovarian = system: SK-OV-3 ovarian
SNB-75 CNS = system: SNB-75 CNS
U251 CNS = system: U251 CNS

Compound	TGI (HCC-2998 colon)	TGI (HS 578T breast) [µM]	TGI (HT29 colon) [µM]	TGI (LOX IMVI melanoma)	TGI (MALME-3M melanoma)	TGI (NCI-H460 lung) [µM]	TGI (NCI/ADR-RES ovarian) [µM]	TGI (SK-OV-3 ovarian) [µM]	TGI (SNB-75 CNS) [µM]	TGI (U251 CNS) [µM]	GI50 (HS 578T breast) [µM]	GI50 (NCI-H460 lung)	GI50 (NCI/ADR-RES ovarian) [µM]	GI50 (SNB-75 CNS) [µM]	GI50 (HCC-2998 colon)	GI50 (HT29 colon) [µM]	GI50 (SK-OV-3 ovarian)	GI50 (LOX IMVI melanoma) [µM]	GI50 (U251 CNS) [µM]	GI50 (MALME-3M melanoma) [µM]
CCCC[C@H]1C(=O)O[C@H](C)[C@H](NC(=O)c2cccc(NC=O)c2OC)C(=O)O[C@@H](C)[C@@H]1OC(=O)CC(C)C (tested in a mixture with another compound)	80.6 µM	63.1	33.1	23.2 µM	46.5 µM	21.4	61.1	30.1	17.9	18.9	–	–	–	–	–	–	–	–	–	–
O=c1c(-c2ccccc2)c(SCCN2CCOCC2)n(-c2ccccc2)c(=S)n1-c1ccccc1	> 100 µM	> 100	–	> 100 µM	> 100 µM	> 100	> 100	> 100	87.6	> 100	–	–	–	–	–	–	–	–	–	–
Cc1ccc(C(=O)Nc2ncn(C3CC(O)C(CO)O3)c(=O)n2)cc1 (stereo not drawn)	> 100 µM	–	> 100	> 100 µM	> 100 µM	> 100	> 100	> 100	> 100	> 100	–	–	–	–	–	–	–	–	–	–
C=C1CC2C3C=C(C)C4=CC(=O)CC[C@]4(C)C3CC[C@]2(C)[C@@]1(OC(C)=O)C(C)=O (stereo partly drawn)	–	> 100	–	–	–	> 100	> 100	–	> 100	–	43.5	3.69 µM	2.43	8.76	–	–	–	–	–	–
Cc1cc2c(cc1Cl)SC(c1ccccc1O)NS2(=O)=O (stereo not drawn)	> 100 µM	> 100	> 100	> 100 µM	61.8 µM	> 100	> 100	> 100	> 100	> 100	–	–	–	–	–	–	–	–	–	–
C[C@H]1CCC/C=C/[C@@H]2C[C@H](O)C[C@H]2[C@H](O)/C=C/C(=O)O1	0.674 µM and 0.322 µM	> 100	–	0.0412 µM and 0.0275 µM	0.0745 µM and 0.0253 µM and 0.0382 µM	–	–	–	–	> 100	–	0.036 µM and 0.0837 µM and 0.0828 µM	0.0476	0.0185	0.0623 µM and 0.054 µM	0.0224	0.0361 µM and 0.0334 µM	–	–	–
CCCCCCCCCCCCCCCCCC(=O)OCC1OC(OC)C(NC(=O)N(CCCl)N=O)C(O)C1O (stereo not drawn)	> 100 µM	–	63.6	31.8 µM	78.3 µM	33.5	–	–	41.6	–	–	–	–	–	–	–	–	–	–	–
CCOC(=O)C12CC(C)=C(C)CC1CCCc1ccccc12 (stereo not drawn)	28.1 µM	> 100	36.5	30.8 µM	53.5 µM	32.7	> 100	> 100	71.1	39.6	–	–	–	–	–	–	–	–	–	–
COc1ccc(N=Cc2ccc(N(CCC#N)S(=O)(=O)c3ccccc3)cc2C)cc1	> 100 µM	–	> 100	–	93.7 µM	> 100	–	> 100	> 100	> 100	–	–	–	–	–	–	–	–	–	–
COc1cc(/C=C2\N=C(c3ccccc3)N(c3nc4ccc(Sc5ccccc5)cc4[nH]3)C2=O)cc(OC)c1OC	30.3 µM	> 100	48.4	61.7 µM	40.3 µM	51.4	74.6	> 100	> 100	43.9	–	–	–	–	–	–	–	–	–	–
CCOC(=O)/C(=C\NC(C)(C)CO)c1nc2ccccc2[nH]1	> 100 µM	97.7	> 100	> 100 µM	> 100 µM	> 100	> 100	> 100	> 100	–	–	–	–	–	–	–	–	–	–	–
O=c1[nH]c2cc([N+](=O)[O-])c(N/N=C/c3ccc(Cl)cc3Cl)c([N+](=O)[O-])c2[nH]1	–	> 100	> 100	> 100 µM	> 100 µM	> 100	> 100	77.5	> 100	> 100	–	–	–	–	–	–	–	–	–	–
O=C([CH-]C(=O)c1ccccc1)c1ccccc1.O=C([CH-]C(=O)c1ccccc1)c1ccccc1.O=C([CH-]C(=O)c1ccccc1)c1ccccc1.[Cl-].[Hf+4]	–	–	> 100	> 100 µM	–	67.7	–	62.3	> 100	> 100	–	13.1 µM	–	9.43	–	33.9	22.7 µM	23.3	19.1	–
CC(C)(C)c1cc(-c2nc3ccc(N4CCN(CCO)CC4)cc3[nH]2)cc(C(C)(C)C)c1O	–	4.68	–	3.43 µM	2.83 µM	–	> 100	86.1	4.55	–	1.73	–	> 100	1.21	–	–	12.7 µM	1.86	–	1.47
O=C1CS(=O)(=O)C(c2cccc(Oc3ccccc3)c2)N1C1CC1 (stereo not drawn)	> 100 µM	> 100	> 100	> 100 µM	> 100 µM	> 100	> 100	67.7	80.7	> 100	–	–	–	–	–	–	–	–	–	–
N#Cc1c(-c2ccc(Cl)cc2)c2c([nH]c1=O)-c1cc([N+](=O)[O-])ccc1CCC2	35.7 µM	99.2	75.5	37.9 µM	> 100 µM	42.5	55.4	> 100	78.3	41.6	–	–	–	–	–	–	–	–	–	–

Compound	TGI (HCC-2998 colon)	TGI (HS 578T breast) [µM]	TGI (HT29 colon) [µM]	TGI (LOX IMVI melanoma)	TGI (MALME-3M melanoma)	TGI (NCI-H460 lung) [µM]	TGI (NCI/ADR-RES ovarian) [µM]	TGI (SK-OV-3 ovarian) [µM]	TGI (SNB-75 CNS) [µM]	TGI (U251 CNS) [µM]	GI50 (HS 578T breast) [µM]	GI50 (NCI-H460 lung)	GI50 (NCI/ADR-RES ovarian) [µM]	GI50 (SNB-75 CNS) [µM]	GI50 (HCC-2998 colon)	GI50 (HT29 colon) [µM]	GI50 (SK-OV-3 ovarian)	GI50 (LOX IMVI melanoma) [µM]	GI50 (U251 CNS) [µM]	GI50 (MALME-3M melanoma) [µM]
COc1cc(C2C(=O)C(Cl)N2Nc2nc(C)cc(=O)[nH]2)cc(OC)c1OC (stereo not drawn)	33 µM	–	66.2	27.5 µM	–	21.9	–	–	43.3	36.3	–	–	–	–	–	–	–	–	–	–
CCN(CCO)CCNc1ccc(C)c2sc3ccccc3c(=O)c12	5.2 µM	7.49	6.31	5.18 µM	8.05 µM	3.88	11.7	18.1	12	12.4	–	–	–	–	–	–	–	–	–	–
O=c1[nH]c(=O)n(CCOCP(=O)(O)O)nc1Br	> 100 µM	> 100	> 100	> 100 µM	> 100 µM	> 100	> 100	–	> 100	> 100	–	–	–	–	–	–	–	–	–	–
Cc1ccc2c3c1[C@@H]1O[C@@H]1c1cccc(c1-3)[C@@H]1O[C@H]21	–	60.2	23.4	7.38 µM	31 µM	–	90	63.9	15.7	28.9	–	–	–	–	–	–	–	–	–	–
O=S(=O)(O)c1ccc2c(N=Nc3ccccc3)c(O)ccc2c1	> 100 µM	> 100	> 100	> 100 µM	> 100 µM	> 100	> 100	> 100	> 100	> 100	–	–	–	–	–	–	–	–	–	–
COc1ccc(N=Nc2c(N)nn(C)c2N)cc1	–	–	> 100	> 100 µM	> 100 µM	> 100	–	> 100	> 100	> 100	–	–	–	–	–	–	–	–	–	–
CCCCCCCCCCCCSC(=S)c1c(C)[nH]n(CCCCCCCCCCCC)c1=O	> 100 µM	–	> 100	> 100 µM	> 100 µM	> 100	–	> 100	> 100	> 100	–	–	–	–	–	–	–	–	–	–
N=C(N)c1ccc(N=Nc2c(O)ccc3cc4c(N=Nc5ccc(C(=N)N)cc5)c(O)ccc4cc23)cc1	> 100 µM	> 100	> 100	–	> 100 µM	> 100	> 100	> 100	> 100	> 100	–	–	–	–	–	–	–	–	–	–
CN1NC(c2ccccc2)=C(C#N)C(=O)CC1c1ccc(F)cc1 (stereo not drawn)	> 100 µM	–	> 100	> 100 µM	> 100 µM	> 100	–	> 100	> 100	> 100	–	–	–	–	–	–	–	–	–	–
Cn1c(=O)ccc2c(=O)c3ccccc3oc21	> 100 µM	> 100	> 100	> 100 µM	> 100 µM	> 100	> 100	> 100	–	> 100	–	–	–	–	–	–	–	–	–	–
NC(=O)CCSC(CC(=O)c1ccc(Cl)cc1)c1ccc(Cl)cc1 (stereo not drawn)	32.7 µM	> 100	> 100	25.5 µM	66.8 µM	> 100	52.5	> 100	90.7	34.5	–	–	–	–	–	–	–	–	–	–
C/C(=C\C(=N\NC(=N)N)c1ccccc1)c1ccccc1	1.86 µM	18.5	3.44	2.56 µM	3.5 µM	11.1	10.1	15.7	17.3	2.04	–	–	–	–	–	–	–	–	–	–
Cc1cn(Cc2cn(CC3OC(n4cc(C)c(=O)[nH]c4=O)CC3O)nn2)c(=O)[nH]c1=O (stereo not drawn)	> 100 µM	> 100	–	–	> 100 µM	–	> 100	> 100	> 100	> 100	–	–	–	–	–	–	–	–	–	–
Cc1cc(=O)n2c3c(c4c(cc13)c(CN(C)C)cc(=O)n4C)OC2	35.9 µM	41.1	> 45.9	> 100 µM	30.4 µM	> 100	> 76.9	> 94.7	58.6	> 100	–	–	–	–	–	–	–	–	–	–
COP(=O)(OC)[C@H](O)[C@H]1C[C@@H]1c1ccccc1	> 100 µM	> 100	> 100	> 100 µM	> 100 µM	> 100	> 100	> 100	> 100	> 100	–	–	–	–	–	–	–	–	–	–
